Assay results from patent US6998144B2, “Method of improving sweetness delivery of sucralose” (McNeil-PPC, Inc., priority 1998, dated 2006).
Residues, ends and D or L forms follow the SMILES beside them.

Experiments:
trained evaluators = assay: Determination of equally sweet levels in bottled water by a panel of six trained evaluators; format: in vivo; conditions: for equally sweet level: sweetener alone in bottled water
Excerpt: A panel of six trained evaluators determined equally sweet levels of sucralose, sucralose+DHB, aspartame, and aspartame+DHB, all in bottled water. […] Previous evaluations had shown 15 ppm DHB as optimal for taste alteration in sucralose products. Greater than 50 ppm DHB, in pure water solutions, has a slightly sweet taste and contributes to the total taste of the solution.

trained panelists = assay: Sweetness time-intensity study of equally sweet solutions, 12 trained panelists; format: in vivo
Description: The data in Table 1 (“STIME”) in the Examples below correlate with the curves shown in this Figure. Imax: maximum intensity recorded. Tmax: first time that maximum intensity was recorded. Tend: last time that a non-zero intensity was recorded. Tdec50: last time that an intensity greater than 50% of Imax was recorded (i.e. the time at which the intensity had decreased to 50% of Imax). Tdec10: same as for Tdec50, but at 10% of Imax. Area: area under the curve. Tdecline: time interval from Tmax to Tdec10. The experiments giving rise to the data in this Figure and Table 1 are described in Example 1 below.
The data in Table 2 (“ATIME”) in the Examples below correlate with the curves shown in this Figure. These curve parameters, as shown in the Table, are defined as per those in FIG. 1. The experiments giving rise to the data in this Figure are described in Example 1 below.
For sweetness time-intensity studies, room temperature equally sweet solutions were presented to 12 trained panelists. The panelists had been screened for general sensory acuity and trained in general methods for sweetener assessment as well as time-intensity methods. […]
The data collected by the computer were read every second, for a total of 180 data points per tasting. Mean panelist response was calculated for each time data point. […]

Structure (SMILES): O=C(O)c1ccc(O)cc1O [DHB, 2,4-dihydroxybenzoic acid]
- DHB level that has a slightly sweet taste and contributes to the total taste (trained evaluators; pure water solutions): Greater than 50 ppm
- DHB level optimal for taste alteration (trained evaluators; sucralose products, previous evaluations): 15 ppm
- sweetness delivery profile of aspartame (trained panelists; effect of DHB on aspartame): does not alter
- length of time during which sucralose sweetness is perceived (trained panelists; effect of DHB on sucralose): significantly reduces

Structure (SMILES): OC[C@H]1O[C@H](O[C@]2(CCl)O[C@H](CCl)[C@@H](O)[C@@H]2O)[C@H](O)[C@@H](O)[C@H]1Cl [Sample 1, 1,6-dichloro-1,6-dideoxy-β-D-fructofuranosyl-4-chloro-4-deoxy-α-D-galactopyranoside, reference compound]
- equally sweet level (trained evaluators): 200 ppm

Structure (SMILES): COC(=O)[C@H](Cc1ccccc1)NC(=O)[C@@H](N)CC(=O)O [Sample 1, N-L-α-aspartyl-L-phenylalanine methyl ester, reference compound] (H-Asp-Phe-OMe)
- equally sweet level (trained evaluators): 550 ppm
